{
  "source": "paper PMC7066280",
  "about": "(Investigational New Drugs, 2019)",
  "key": {"[1]": {"parameters": "method as in Agios data on file", "settings": "ref Agios data on file; cited from earlier work"}, "[2]": {"assay": "Ivosidenib plasma PK after a single oral dose (day −3, dose escalation), LC-MS/MS, non-compartmental", "format": "in vivo", "settings": "human; for AUC(0-t): read-out: AUC0-72h", "experimental": "In the dose escalation portion, patients with 1) glioma and 2) non-glioma solid tumors were enrolled into sequential cohorts using a standard 3 + 3 design. […] At least 3 patients in each cohort also received a single dose 3 days prior to the start of multiple dosing (i.e., day −3).\nThese samples were optional for any further patients enrolled in these cohorts. Further blood samples were collected from all patients up to 10 h postdose on cycle 1, day 15 and cycle 2, day 1. A subset of samples was also used for evaluation of plasma 4β-hydroxycholesterol (4β-OHC) and 4β-OHC:cholesterol ratios. Blood samples for assessment of 2-HG only were also collected at screening.\nPlasma ivosidenib was measured using two validated liquid chromatography-tandem mass spectrometry (LC-MS/MS) methods. The lower limit of quantification (LLOQ) was 1.00 ng/mL (low-range assay) or 50.0 ng/mL (high-range assay). […] Plasma 2-HG concentrations were measured using a qualified LC-MS/MS method with an LLOQ of 30.0 ng/mL. Concentrations of 2-HG in tumor biopsy samples were quantified using qualified LC-MS/MS methods with an LLOQ of 7.5 μg/g for brain tumor homogenate, 100 ng/g for liver tumor homogenate (low-range assay), and 30 μg/g for liver tumor homogenate (high-range assay). Plasma 4β-OHC and cholesterol were measured using a validated LC-MS/MS method. The LLOQ was 5 ng/mL for 4β-OHC and 25 μg/mL for cholesterol in human plasma.\nPK parameters included area under the plasma concentration-time curve (AUC), maximum plasma concentration (Cmax), time to maximum plasma concentration (Tmax), terminal elimination half-life (t1/2), and apparent oral clearance at steady state (CLss/F). Accumulation ratio (Racc), based on Cmax and AUC, was also assessed during the dose escalation portion. PD (2-HG) parameters included baseline-effect value, area under the effect concentration-time curve (AUEC0-10h for the dose escalation portion, or AUEC0-8h for the dose escalation and expansion portions), percent change from baseline in AUEC (%BAUEC0-10h for the escalation portion, or %BAUEC0-8h for the dose escalation and expansion portions), average plasma concentration (Cavg), and percent inhibition for Cavg (%BCavg). For the dose escalation portion, the time-matched ratios of 4β-OHC to cholesterol were calculated."}, "[3]": {"assay": "Dose proportionality assessment of AUC and Cmax (power model)", "format": "in vivo, human", "experimental": "Dose proportionality after multiple dosing was tested using data from the QD dose regimens without the 100 mg BID dose group. To assess dose proportionality, the confidence interval (CI) for the slope was estimated, with each natural logarithm (ln)-transformed PK parameter as the dependent variable and the ln-transformed dose as the fixed effect. Analysis was performed using PK parameter estimates at day −3, cycle 1, day 15, and cycle 2, day 1. Dose proportionality was concluded if the 95% CI around the slope included 1 and if the slope was between 0.8 and 1.2 (inclusive)."}, "[4]": {"settings": "po, 100 mg, glioma, single oral 100 mg, day −3, geometric mean (geometric CV%)"}, "[5]": {"settings": "po, 100 mg, non-glioma solid tumors, single oral 100 mg, day −3, geometric mean (geometric CV%)"}, "[6]": {"settings": "po, 300 mg, glioma, single oral 300 mg, day −3, geometric mean (geometric CV%)"}, "[7]": {"settings": "po, 300 mg, non-glioma solid tumors, single oral 300 mg, day −3, geometric mean (geometric CV%)"}, "[8]": {"settings": "po, 400 mg, non-glioma solid tumors, single oral 400 mg, day −3, geometric mean (geometric CV%)"}, "[9]": {"settings": "po, 500 mg, glioma, single oral 500 mg, day −3, geometric mean (geometric CV%)"}, "[10]": {"settings": "po, 500 mg, non-glioma solid tumors, single oral 500 mg, day −3, geometric mean (geometric CV%)"}, "[11]": {"settings": "po, 600 mg, glioma, single oral 600 mg, day −3, geometric mean (geometric CV%)"}, "[12]": {"settings": "po, 800 mg, non-glioma solid tumors, single oral 800 mg, day −3, geometric mean (geometric CV%)"}, "[13]": {"settings": "po, 900 mg, glioma, single oral 900 mg, day −3, geometric mean (geometric CV%)"}, "[14]": {"settings": "po, 1200 mg, non-glioma solid tumors, single oral 1200 mg, day −3, geometric mean (geometric CV%)"}},
  "note": "Like-named read-outs stand apart in the source and are kept apart here.",
  "data": [
    {"smiles": "N#Cc1ccnc(N2C(=O)CC[C@H]2C(=O)N(c2cncc(F)c2)[C@H](C(=O)NC2CC(F)(F)C2)c2ccccc2Cl)c1", "note": "[ivosidenib]", "values": [
      {"measurement": "solubility (BCS)", "setting": "[1]", "result": "low solubility"},
      {"measurement": "half-life", "setting": "[2]; oral, 500 mg, single dose of 500 mg, patients with cholangiocarcinoma/chondrosarcoma, read-out: mean t1/2 (converted)", "result": 64, "unit": "h"},
      {"measurement": "half-life", "setting": "[2]; oral, 500 mg, single dose of 500 mg, patients with glioma, read-out: mean t1/2 (converted)", "result": 56, "unit": "h"},
      {"measurement": "half-life", "setting": "[2]; oral, after single dose, range of means across doses and tumor types, read-out: terminal half-life (mean)", "result": "40 to 102", "unit": "h"},
      {"measurement": "Tmax", "setting": "[2]; oral, single dose day −3, range across all tumor types, read-out: median Tmax", "result": "2 to 6", "unit": "h"},
      {"measurement": "half-life", "setting": "[2]; oral, single dose, patients with glioma, range across doses, read-out: mean t1/2 (converted)", "result": "40 to 56", "unit": "h"},
      {"measurement": "half-life", "setting": "[2]; oral, single dose, patients with non-glioma solid tumors, range across doses, read-out: mean t1/2 (converted)", "result": "62 to 102", "unit": "h"},
      {"measurement": "Cmax", "setting": "[2]; [4]", "result": 1270, "unit": "ng/mL"},
      {"measurement": "AUC(0-t)", "setting": "[2]; [4]", "result": 32800, "unit": "ng·h/mL"},
      {"measurement": "half-life", "setting": "[2]; po, 100 mg, glioma, single oral 100 mg, day −3, geometric mean (geometric CV%), read-out: t1/2 (converted)", "result": 55.5, "unit": "h"},
      {"measurement": "Tmax", "setting": "[2]; po, 100 mg, glioma, single oral 100 mg, day −3, median (minimum; maximum), read-out: Tmax", "result": 2.03, "unit": "h"},
      {"measurement": "Cmax", "setting": "[2]; [5]", "result": 1400, "unit": "ng/mL"},
      {"measurement": "AUC(0-t)", "setting": "[2]; [5]", "result": 34800, "unit": "ng·h/mL"},
      {"measurement": "half-life", "setting": "[2]; po, 100 mg, non-glioma solid tumors, single oral 100 mg, day −3, geometric mean (geometric CV%), read-out: t1/2 (converted)", "result": 102, "unit": "h"},
      {"measurement": "Tmax", "setting": "[2]; po, 100 mg, non-glioma solid tumors, single oral 100 mg, day −3, median (minimum; maximum), read-out: Tmax", "result": 3, "unit": "h"},
      {"measurement": "Cmax", "setting": "[2]; [6]", "result": 2300, "unit": "ng/mL"},
      {"measurement": "AUC(0-t)", "setting": "[2]; [6]", "result": 62500, "unit": "ng·h/mL"},
      {"measurement": "half-life", "setting": "[2]; po, 300 mg, glioma, single oral 300 mg, day −3, geometric mean (geometric CV%), read-out: t1/2 (converted)", "result": 53.6, "unit": "h"},
      {"measurement": "Tmax", "setting": "[2]; po, 300 mg, glioma, single oral 300 mg, day −3, median (minimum; maximum), read-out: Tmax", "result": 4, "unit": "h"},
      {"measurement": "Cmax", "setting": "[2]; [7]", "result": 2350, "unit": "ng/mL"},
      {"measurement": "AUC(0-t)", "setting": "[2]; [7]", "result": 71600, "unit": "ng·h/mL"},
      {"measurement": "half-life", "setting": "[2]; po, 300 mg, non-glioma solid tumors, single oral 300 mg, day −3, geometric mean (geometric CV%), read-out: t1/2 (converted)", "result": 77.9, "unit": "h"},
      {"measurement": "Tmax", "setting": "[2]; po, 300 mg, non-glioma solid tumors, single oral 300 mg, day −3, median (minimum; maximum), read-out: Tmax", "result": 4.17, "unit": "h"},
      {"measurement": "Cmax", "setting": "[2]; [8]", "result": 4230, "unit": "ng/mL"},
      {"measurement": "AUC(0-t)", "setting": "[2]; [8]", "result": 141000, "unit": "ng·h/mL"},
      {"measurement": "half-life", "setting": "[2]; po, 400 mg, non-glioma solid tumors, single oral 400 mg, day −3, geometric mean (geometric CV%), read-out: t1/2 (converted)", "result": 77.3, "unit": "h"},
      {"measurement": "Tmax", "setting": "[2]; po, 400 mg, non-glioma solid tumors, single oral 400 mg, day −3, median (minimum; maximum), read-out: Tmax", "result": 3, "unit": "h"},
      {"measurement": "Cmax", "setting": "[2]; [9]", "result": 2370, "unit": "ng/mL"},
      {"measurement": "AUC(0-t)", "setting": "[2]; [9]", "result": 81900, "unit": "ng·h/mL"},
      {"measurement": "half-life", "setting": "[2]; po, 500 mg, glioma, single oral 500 mg, day −3, geometric mean (geometric CV%), read-out: t1/2 (converted)", "result": 56.4, "unit": "h"},
      {"measurement": "Tmax", "setting": "[2]; po, 500 mg, glioma, single oral 500 mg, day −3, median (minimum; maximum), read-out: Tmax", "result": 3.54, "unit": "h"},
      {"measurement": "Cmax", "setting": "[2]; [10]", "result": 3660, "unit": "ng/mL"},
      {"measurement": "AUC(0-t)", "setting": "[2]; [10]", "result": 112000, "unit": "ng·h/mL"},
      {"measurement": "half-life", "setting": "[2]; po, 500 mg, non-glioma solid tumors, single oral 500 mg, day −3, geometric mean (geometric CV%), read-out: t1/2 (converted)", "result": 64.3, "unit": "h"},
      {"measurement": "Tmax", "setting": "[2]; po, 500 mg, non-glioma solid tumors, single oral 500 mg, day −3, median (minimum; maximum), read-out: Tmax", "result": 2.92, "unit": "h"},
      {"measurement": "Cmax", "setting": "[2]; [11]", "result": 3380, "unit": "ng/mL"},
      {"measurement": "AUC(0-t)", "setting": "[2]; [11]", "result": 77700, "unit": "ng·h/mL"},
      {"measurement": "half-life", "setting": "[2]; po, 600 mg, glioma, single oral 600 mg, day −3, geometric mean (geometric CV%), read-out: t1/2 (converted)", "result": 39.5, "unit": "h"},
      {"measurement": "Tmax", "setting": "[2]; po, 600 mg, glioma, single oral 600 mg, day −3, median (minimum; maximum), read-out: Tmax", "result": 3, "unit": "h"},
      {"measurement": "Cmax", "setting": "[2]; [12]", "result": 6190, "unit": "ng/mL"},
      {"measurement": "AUC(0-t)", "setting": "[2]; [12]", "result": 179000, "unit": "ng·h/mL"},
      {"measurement": "half-life", "setting": "[2]; po, 800 mg, non-glioma solid tumors, single oral 800 mg, day −3, geometric mean (geometric CV%), read-out: t1/2 (converted)", "result": 62.8, "unit": "h"},
      {"measurement": "Tmax", "setting": "[2]; po, 800 mg, non-glioma solid tumors, single oral 800 mg, day −3, median (minimum; maximum), read-out: Tmax", "result": 3, "unit": "h"},
      {"measurement": "Cmax", "setting": "[2]; [13]", "result": 3440, "unit": "ng/mL"},
      {"measurement": "AUC(0-t)", "setting": "[2]; [13]", "result": 98600, "unit": "ng·h/mL"},
      {"measurement": "half-life", "setting": "[2]; po, 900 mg, glioma, single oral 900 mg, day −3, geometric mean (geometric CV%), read-out: t1/2 (converted)", "result": 54.3, "unit": "h"},
      {"measurement": "Tmax", "setting": "[2]; po, 900 mg, glioma, single oral 900 mg, day −3, median (minimum; maximum), read-out: Tmax", "result": 2.55, "unit": "h"},
      {"measurement": "Cmax", "setting": "[2]; [14]", "result": 5990, "unit": "ng/mL"},
      {"measurement": "AUC(0-t)", "setting": "[2]; [14]", "result": 212000, "unit": "ng·h/mL"},
      {"measurement": "half-life", "setting": "[2]; po, 1200 mg, non-glioma solid tumors, single oral 1200 mg, day −3, geometric mean (geometric CV%), read-out: t1/2 (converted)", "result": 61.6, "unit": "h"},
      {"measurement": "Tmax", "setting": "[2]; po, 1200 mg, non-glioma solid tumors, single oral 1200 mg, day −3, median (minimum; maximum), read-out: Tmax", "result": 6, "unit": "h"},
      {"measurement": "increase in ivosidenib exposure for a doubling of dose", "setting": "[3]; patients with glioma", "result": "~40", "unit": "%"},
      {"measurement": "increase in ivosidenib exposure for a doubling of dose", "setting": "[3]; patients with non-glioma solid tumors", "result": "~70", "unit": "%"}
    ]}
  ]
}
